Consider one molecule from paper PMC6520475 (European Journal of Drug Metabolism and Pharmacokinetics, 2018).

Each structure is given as a SMILES string.

Data set [1] is described as follows: Population pharmacokinetic. The note with it: base model without covariates.
The conditions of data set [2]: cited from earlier work.
For data set [3] the following is noted: general statement, no reference given; cited from earlier work.

Turning to `CN[C@H](CC(C)C)C(=O)N[C@H]1C(=O)N[C@@H](CC(N)=O)C(=O)N[C@H]2C(=O)N[C@H]3C(=O)N[C@H](C(=O)N[C@H](C(=O)O)c4cc(O)cc(O)c4-c4cc3ccc4O)[C@H](O)c3ccc(c(Cl)c3)Oc3cc2cc(c3O[C@@H]2O[C@H](CO)[C@@H](O)[C@H](O)[C@H]2O[C@H]2C[C@](C)(N)[C@H](O)[C@H](C)O2)Oc2ccc(cc2Cl)[C@H]1O` [vancomycin], in data set [1], the “θ1CL, population typical value of CL, base model” value is listed as 2.47 L/h and the “θ2Vd, population typical value of Vd, base model” value is listed as 142 L. Further, the “Vd, PopPK model” value in data set [2] (Adult Chinese patients, n = 72, 1-compartment model, ref 7 (Deng)) is 47.76 L. The “V2, PopPK model” value in data set [2] (Adult Gram-positive bacterial infection in ICU, n = 103, ref 25 (Weng Fangjuan)) is recorded as 44.2 L. For the same molecule, the “CL, PopPK model” value in data set [2] (MRSA infectors, n = 76, 1-compartment model, ref 11 (Leu)) is recorded as “CLCR”. Moreover, the “Fraction of vancomycin excreted through the kidney” value in data set [3] is reported as 90%.
